This is an account of results in US20140227325A1, “LIGNIN-DERIVED POROUS CARBON COMPOSITION, METHODS OF PREPARATION, AND USE THEREOF” (UT-BATTELLE, LLC, priority 2013, published 2014).

Data set [1] can be described thus: Drug loading amount by thermogravimetric analysis (TGA). The following applies: for Loading percent in LMC-2: drug loaded in LMC-2, TGA; for Loading percent in PMC: drug loaded in PMC, TGA. Format: physicochemical. The protocol:
(§1) The loaded mesoporous carbons were dried, the external surface cleaned, and then placed into 130 cm^3 of simulated gastric fluid without pepsin (SGF; 0.2% w/v NaCl, aqueous HCl, pH adjusted to ˜1.5) or into simulated intestinal fluid (SIF) at ambient temperature for 30-50 hours under mild stirring (˜60 rpm) for in-vitro drug release. The drug concentrations were measured by UV-Vis spectroscopy utilizing a calibration curve on absorbance at various concentrations of the drug in SGF or SIF medium.
The drug loading amount in PMC and LMC-2 were measured with the help of thermogravimetric analysis (TGA). Pure mesoporous carbons, pure drugs, and drug-loaded carbons were heated under an inert atmosphere (N2) up to 1000° C., wherein the drug loading amount was calculated by comparing the relative amount of residues.

For data set [2] the following is noted: cited from earlier work.
Data set [3] can be described thus: In-vitro drug release from loaded mesoporous carbon in SGF or SIF (UV-Vis), with kinetic and diffusivity analysis. Format: physicochemical. Here is the method:
as §1
In order to further investigate the diffusivity of the loaded drugs in the releasing media, Fick's laws of diffusion in spherical and cylindrical coordinates were utilized. Based on the assumption that drug-loaded mesoporous carbons are monolithic systems, the release profile in the spherical system can be mathematically expressed as (J. Siepmann, F. Siepmann, J., Controlled Release, 161 (2012) 351-362.):
versus t will yield the diffusivity values for both types of systems. […] As the centers of micelles are believed to give rise to the mesopores, and because the micelles are approximately spherical in shape, a distorted spherical to cylindrical entity could serve as the closest approximation of the pore geometry. Based on these assumptions, diffusivity values have been calculated from all the release patterns for both spherical and cylindrical systems.
versus t which also yields the diffusivity values of antipyrine from LMC-2 and PMC at three temperatures of 25° C., 35.5° C., and 50° C. Because of the surfactant templating, it was assumed that the mesopore geometries have a spherical to cylindrical shape, which became a basis for calculating the diffusivity values from each of the patterns in both cylindrical and spherical systems.
In order to provide further insight on the temperature dependence of diffusivity, calculations were made using the Eyring equation by assuming antipyrine diffusion from the pores of the carbons is an activation process,
where Eα is the activation energy.

Data set [4] in a line: N2 adsorption-desorption on drug-loaded mesoporous carbons (pore filling). The format is physicochemical. The protocol: In order to further investigate the occupancy of pore space by drug molecules, N2 adsorption-desorption experiments were performed on the drug-loaded mesoporous carbons, and the pore size distribution was calculated by the NLDFT method.
Where [5] appears, read: from LMC-1, SGF, within around 60% of total drug release.

Turning to `Cc1cc(=O)n(-c2ccccc2)n1C` [Antipyrine], in data set [1], the “Loading percent in LMC-2” value is listed as 12% and the “Loading percent in PMC” value was found to be 22%. The completion of release in data set [2] (from porous silica) is 300 min.

For `C[C@H](CS)C(=O)N1CCC[C@H]1C(=O)O` [Captopril], in data set [1], the “Loading percent in LMC-2” value is reported as 5% and the “Loading percent in PMC” value stood at 13%. In data set [3] (LMC/SGF), the “Diffusivity, Cylindrical” value is listed as 2 × 10^−22 m^2/s and the “Diffusivity, Spherical” value was 9 × 10^−23 m^2/s. In addition, in data set [3] (PMC/SGF), the “Diffusivity, Cylindrical” value is recorded as 2 × 10^−23 m^2/s and the “Diffusivity, Spherical” value was 7 × 10^−24 m^2/s. In addition, the “time to complete release” value in data set [3] (from LMC, SGF) was below 20 h. In data set [3] (setting [5]), the “order of release (Korsmeyer-Peppas equation)” value is on record as 0.42 and the “release rate constant (Korsmeyer-Peppas equation)” value was 3.9. In addition, the “time to complete release” value in data set [3] (from PMC, SGF) was around 40 h. The “pore filling by drug” value in data set [4] (PMC) is on record as “highest pore filling”.

`NS(=O)(=O)c1cc(C(=O)O)c(NCc2ccco2)cc1Cl` [Furosemide]: the “Loading percent in LMC-2” value in data set [1] is listed as 6.6%. Further, the “Loading percent in PMC” value in data set [1] turned out to be 6.7%. The “Diffusivity, Cylindrical” value is 6 × 10^−22 m^2/s in data set [3] (LMC/SGF), 7 × 10^−23 m^2/s in data set [3] (PMC/SGF) and 2 × 10^−23 m^2/s in data set [3] (PMC/SIF). Besides, the “Diffusivity, Spherical” value in data set [3] (LMC/SGF) is recorded as 4 × 10^−22 m^2/s; in data set [3] (PMC/SGF) it was 4 × 10^−23 m^2/s; in data set [3] (PMC/SIF), 1 × 10^−23 m^2/s. The “initial burst, drug released within 1.5 hours” value in data set [3] (SGF) amounted to 60%. Also, the “time to complete release” value in data set [3] (from LMC, SGF) was “less than 10 hours”; in data set [3] (from PMC, SGF) it was 30 to 40 h; in data set [3] (from PMC, SIF (pH ~6.8)) it was 30 to 40 h. In addition, the “order of magnitude of diffusivity” value in data set [3] (release from LMC) is on record as 10^−22 m^2/s; in data set [3] (release from PMC in both SGF and SIF), 10^−23 m^2/s. Also, the “pore filling by drug” value in data set [4] (both types of carbons (PMC, LMC-2)) is “minimum pore filling”. For the same molecule, the release completed result in data set [2] (from mesoporous silica nanoparticles, pH range 5.5 to 7.4) is listed as “less than 100 minutes”.
